Data published in a melting point compilation (Tetko et al.; mined from patent text by program, amines drawn as free bases though some values may be those of a salt).

| Structure (SMILES) | melting point [°C] |
| --- | --- |
| CNC(=S)NS(=O)(=O)c1cc(CCNC(=O)c2cc(C(C)(C)C)ccc2OC)ccc1OCCOC | 61 |
| COc1ccc2c(c1)C(=O)C(CC=O)C2 (racemic) | 59 |
| O=[N+]([O-])c1ccc(CSc2ccc(Cl)cc2)cc1 | 66 to 68 |
| O=CNC1=NN(c2ccccc2)C(c2ccccc2)C1 (configuration not stated) | 158 to 160 |
| CCC(=CC(CNC(=O)c1cccnc1SC)=NO)C(C)[N+](=O)[O-] (configuration not stated) | 161 to 163 |
| NC(=O)c1nc(C2CC2)nc(NCc2ccco2)c1Cl | 126 to 128 |
| Fc1ccc(-n2c3c(c4cc(F)ccc42)CNCC3)cc1 | 126 to 129 |
| O=C(NC1CC1)c1nc(-c2ccccc2)c(-c2ccc(=O)[nH]n2)s1 | > 250 |
| CCCCCCCCCCCC(=O)c1cn(CCCC(=O)O)c2ccccc12 | 88 to 90 |
| Cc1ccc(S(=O)(=O)N2Cc3cncnc3-c3ccc(Cl)cc3C2c2ccccc2Cl)cc1 (configuration not stated) | 200 to 201 |
| CCN(c1cc2c3c(c1)CCCC3(C)CCC2)c1ncc(C(=O)O)cn1 | 257 to 258 |
| CCCS(=O)c1ccc(-c2coc3ccc(-c4nnc(C)o4)cc23)cc1 (configuration not stated) | 140 to 141 |
| COc1cccc2oc(=O)c3c4c(ccc3c12)NC(C)(C)C=C4C | 247 to 248 |
| COc1ccc(C[C@@H](COC(C)=O)NC(=O)c2ccnc(-n3nc(-c4cccnc4)c4ccccc4c3=O)c2)cc1OC | 85 to 87 |
| CCCCCCCCCCCCCCCC(=O)OCCCN(C)C | 49 to 50 |
| CCc1c2c(nc3cc(F)cc(F)c13)-c1cc3c(c(=O)n1C2)COC(=O)CC3(O)CC (configuration not stated) | 255 |
| CNc1c(S(=O)(=O)C(F)(F)F)c(-c2ncon2)nn1-c1c(Cl)cc(C(F)(F)F)cc1Cl | 156 to 158 |
| C=CC(=O)OCCN(CCOC(=O)C=C)c1ccc(N=Nc2snc(C)c2C#N)c(NC(=O)C(C)C)c1 | 92 to 94 |
| CN1C(=O)C(C)(C)N=C(c2ccccc2Cl)c2c1ccc(N)c2Br | 188 to 189 |
| Cc1c(N=C2NCCO2)cccc1NS(C)(=O)=O | 124 to 140 |
| COc1ccc(-c2csc(C(=O)O)n2)cc1OC | 105 to 106 |
| COCN1c2cc(CCl)ccc2Sc2nccnc21 | 125 to 126 |

| Structure (SMILES) | melting point [°C] |
| --- | --- |
| COC(=O)CCCc1cc2cc(Cl)ccc2n1S(=O)(=O)c1ccc2c(c1)CCC(C)(C)O2 | 126 to 129 |
| NS(=O)(=O)c1ccc(N2CCN(Cc3ccc4c(c3)NC(=O)CO4)CC2)cc1 | 150 to 153 |
| O=C(O)c1csc2ccc(O)cc12 | 262 to 263 |
| COc1cccc2c3c(c(=O)[nH]c12)CCN3c1ccccc1 | 75 to 77 |
| CCCOc1ccccc1-c1nc2cc([N+](=O)[O-])ccc2c(=O)[nH]1 | 138 |
| CN1Cc2c(-c3nnc(CCl)o3)ncn2-c2cccc(Cl)c2C1=O | 201 to 203 |
| COc1c(C2=NC(C)(C)CO2)ccc(C2=NC(C)(C)CO2)c1OC | 84.5 to 85.5 |
| O=C(O)Cc1cc(C(=O)c2ccc([N+](=O)[O-])cc2)ccc1O | 213 |
| CN(C)/C=C/C(=C(C#N)C#N)c1ccc2cc(N(C)C)ccc2c1 | 213 to 215 |
| CCOC(=O)C(=CNc1ncnc2ccc(NC(=O)CC(C)(C)C)cc12)C(=O)OCC | 133 to 135 |
| O=C(O)c1cc2ccccc2nc1N[C@H](Cc1ccccc1)C(=O)O | 140 to 142 |
| Cc1ccc(-n2nc(C(=O)NC(C)(C)C)c3c2C2CCC3C2)cc1 (configuration not stated) | 135 to 137 |
| CCCCOc1ccc(NC(=O)c2cnc(C(=O)OC)c(Cl)c2)cc1 | 121 to 123 |
| CCOC(=O)C1CN2c3c(cc4ccccc4c3CCC2C)C1=O (configuration not stated) | 178 to 180 |
| Nc1noc2cc3c(cc12)C1(CO3)C(=O)N(CC2CCCO2)c2ccccc21 (configuration not stated) | 116 to 119 |
| CC1C(c2ccccc2)OC(C)(C)N1C(=O)C(Cl)Cl (configuration not stated) | 126 |
| CCN(CC)C(=O)c1ccc2ccccc2c1-c1ccc2ccccc2c1 | 159 to 161 |
| CC(C)(SSc1ccccc1C(=O)Nc1ccc(S(N)(=O)=O)cc1)C(N)C(=O)O (configuration not stated) | 115 to 118 |
| CCOC(=O)[C@@H]1[C@H](C)OC(=O)[C@@H]1NC(C)=O | 165 to 167 |
| CCOC(=O)C(NC(C)=O)(C(=O)OCC)C1=Nc2ccc(C#N)cc2C(c2ccccc2F)=NC1 | 138 to 140 |
| CC(C)NC(=O)c1ccccc1F | 76 to 78 |
| Cc1cc(C)c(C(=O)c2ccccc2)c(OCC2CO2)c1 (configuration not stated) | 72 to 74 |

| Structure (SMILES) | melting point [°C] |
| --- | --- |
| CCOC(=O)c1cn(-c2c[nH]nn2)c2cc(F)c(F)cc2c1=O | 298 |
| CN(C(=O)c1ccc2nonc2c1)[C@H]1CC[C@H](N)CC1 | 145 to 146 |
| CSc1cccc(SC)c1S(N)(=O)=O | 197 to 199 |
| N#CCCNC(=O)c1cccc(-c2cccc3c2CN(Cc2cccc(C(F)(F)F)c2)CC3)c1 | 114 to 117 |
| CCOc1cc2c(C[C@H](C)N)c3n(c2cc1F)CCC3 | 107 |
| COC(=O)c1ccc2c(c1)Sc1ccccc1N=C2Cl | 134 to 136 |
| CN1C(=O)C(N)=C(C#N)C1=O | 284 |
| CCc1cc(-c2ccc(-c3ccn(CC(=O)OC)n3)cc2)ccc1OC | 116 to 120 |
| C=CCN1CCCN(c2c(C)cccc2Cl)C1=S | 82 to 84 |
| CCN1c2ncccc2C(SC)=Nc2c(C)cc(C)nc21 | 130 to 132 |
| COc1ccccc1NC(=O)Nc1nc(N2CCN(c3ccccc3OC(C)C)CC2)nc(N(CCC(=O)O)Cc2ccc(Cl)c(Cl)c2)n1 | 115 to 118 |
| COc1cc(Nc2nccc(-c3ccc(NC(=O)OC(C)(C)C)cc3)n2)cc(OC)c1OC | 158 to 159 |
| CCOc1cc(CCC2OC(=O)NC2=O)ccc1OCc1ccccc1 (configuration not stated) | 143 to 144 |
| O=C(CCSC(=O)c1ccccc1)N[C@@H](Cc1c[nH]cn1)C(=O)O | 170 to 171 |
| COC(=O)C1=C(C)NC(CC(=O)N2CCN(C3Cc4ccccc4C3)CC2)=C(C(=O)OC)C1c1c(Cl)cccc1Cl (configuration not stated) | 190 to 200 |
| CC(=O)Nc1nc(Cl)c2ncn(COC(COC(C)C)COC(C)C)c2n1 | 106 |
| COc1cc2ncc(C#N)c(Nc3cccc(O)c3C)c2cc1OC | 255 to 257 |
| CC(C)(C)OC(=O)N1CCCC1(Cc1ccc(Br)cc1)C(=O)O (configuration not stated) | 144 |
| Cc1cc(N2CCNCC2)ccc1NS(C)(=O)=O | 79 to 81 |
| COc1ccc(-c2sc3cc(OC)ccc3c2C(=O)c2ccccc2)cc1 | 100 to 102 |
| CS(=O)(=O)Nc1ccccc1OC/C=C/CN1CCC(OC(c2ccccc2)c2cccs2)CC1 (configuration not stated) | 114 to 117 |

Now from value to compound:

| melting point [°C] | Structure (SMILES) |
| --- | --- |
| 195 to 196 | O=C(NCc1ccc(Cl)cc1)c1cn(N2CCOCC2)c2ccc(CN3CCOCC3)cc2c1=O |
| 310 to 311 | N#Cc1cc(C(=O)c2ccncc2)ccc1O |
| 97 | CSC(=CC(=O)C(F)(F)F)SC |
| 55 to 56 | COc1cccc(CC(=S)N2CCCCC2)c1 |
| 250 | COc1ccc2[nH]c(=O)c3cccn3c2n1 |
| 231 | O=C(O)CNc1cc(Cl)ccc1C(=O)O |
| 123 to 126 | CC(C)(C)NCC(O)COc1ccc(C=O)cc1 (configuration not stated) |
| 101 | O=C(/C=C/c1ccc(C(=O)Nc2cccc(Nc3nc(-c4cccnc4)cs3)c2)cc1)NO |
| 148 to 151 | Cc1cc(C(=O)Nc2ccn3cc(-c4ccccc4)nc3n2)cc(Cl)n1 |
| 76 | O=[N+]([O-])c1cccnc1NCc1ccc(F)cc1 |
| 90 to 94 | CS(=O)(=O)Nc1cccc(Br)n1 |
| 191 | Cc1c(-c2ccc(F)cc2)c(-c2ccc(S(C)(=O)=O)cc2)c2n1CCC2 |
| 150 to 151 | CCCNc1cc(C(=O)OCC)cc(S(N)(=O)=O)c1Oc1ccccc1 |
| 85 to 87 | CN1C(=O)CCC1c1cncc(Br)c1 (configuration not stated) |
| 88 to 91 | CC(C)(C)OC(=O)N=C(NC(=O)OC(C)(C)C)N1CCCC1 |
| 120 to 122 | COc1ccc(C(=O)Cl)cc1OC(=O)c1ccccc1 |
| 107 to 108 | CC(C)(COc1ccc(CSC2NC(=O)CC2=O)cc1)c1ccccc1 (configuration not stated) |
| 192 | Cn1ncnc1COc1nn2c(-c3ccccc3)nnc2cc1C1CCCCC1 |
| 158 to 164 | O=C(Cc1c[nH]c2ccccc12)Nc1ccc(-n2nc(C3CC3)cc2C2CC2)cc1 |

| melting point [°C] | Structure (SMILES) |
| --- | --- |
| 109 to 111 | N#CN1CCC(C2c3ccccc3NN2c2ccccc2Cl)CC1 (configuration not stated) |
| 177 to 179 | COc1cc(Nc2c(C#N)cnc3cc(C#CCCN(C)C)c(OC)cc23)c(Cl)cc1Cl |
| 164 | O=c1[nH]c2ccc(Cl)cc2n1CCCl |
| 69 to 70 | CC(Cc1ccc(Br)cc1)C(=O)O (configuration not stated) |
| 133 to 135 | CC(C)(C)OC(=O)N1C[C@H](n2ccc(NC(=O)c3ccccc3)nc2=O)C[C@@H]1C(=O)OC(c1ccccc1)c1ccccc1 |
| 150 | COC(=O)c1cc(-c2ccccc2)sc1Nc1ccc(F)cc1[N+](=O)[O-] |
| 198 to 200 | CCS(=O)(=O)CCC(=O)NNC(=O)N1Cc2ccccc2Oc2ccc([N+](=O)[O-])cc21 |
| 148 to 150 | O=C(OCC(O)c1ccccc1)c1ccc(-c2ccc(OCCCCCCO)cc2)cc1 (configuration not stated) |
| 175 to 177 | Cc1nc(-c2ccccc2)nc(OCC(=O)O)c1C |
| 109 | Cc1c(CC(=O)N[C@@H](CO[N+](=O)[O-])C(=O)O)cc(-c2ccc(S(C)(=O)=O)cc2)n1-c1ccc(F)cc1 |
| 171 to 173 | CCCCS(=O)(=O)N[C@@H](Cc1ccc(NC(=O)NC(=O)c2ccc(C#N)cc2)cc1)C(=O)OC(C)(C)C |
| 167 to 168 | Cc1nc(-c2ccc(OCC(F)(F)C(F)F)cc2)sc1C(=O)O |
| 33.5 to 35 | COC(=O)CCCCCCCCCCCO |
| 159 | COc1cccc(NC(=O)C(C)(C)C)c1C(C)O (configuration not stated) |
| 208 to 210 | Cc1cnc2c3c(nccc13)C(=O)c1ccccc1-2 |
| 127 to 128 | COc1cc(COc2nn(-c3ccccc3)cc2CO)ccc1OCc1nc(-c2ccco2)oc1C |
| 251 to 253 | Nc1c(-c2ccc(I)cc2)nc2ccc(F)cc2c1C(=O)O |
| 92 to 93 | N#Cc1c(SCCl)nsc1SCCl |
